The experiment has as its target T1, BTK enzyme (recombinant full-length BTK, hBTK) (Homo sapiens, UniProt Q06187).
T1 construct: recombinant protein from baculovirus-transfected Sf9 cells: full-length BTK, 6HIS-tag cleaved; 6HIS (cleaved yes); made in house; host or cells: baculovirus-transfected Sf9 cells
The experiment can be described thus: Btk enzyme activity assay (LANCE TR-FRET). Format: biochemical. To be noted: 60 minute compound & enzyme incubation, 50 pM hBTK, 25 μM ATP, read-out: BTK binding IC50. How it is done:
BTK enzymatic activity was determined with the LANCE (Lanthanide Chelate Excite) TR-FRET (Time-resolved fluorescence resonance energy transfer) assay. In this assay, the potency (IC50) of each compound was determined from an eleven point (1:3 serial dilution; final compound concentration range in assay from 1 μM to 0.017 nM) titration curve using the following outlined procedure. To each well of a black non-binding surface Corning 384-well microplate (Corning Catalog #3820), 5 nL of compound (2000 fold dilution in final assay volume of 10 μL) was dispensed, followed by the addition of 7.5 μL of 1× kinase buffer (50 mM Hepes 7.5, 10 mM MgCl2, 0.01% Brij-35, 1 mM EGTA, 0.05% BSA & 1 mM DTT) containing 5.09 pg/μL (66.67 pM) of BTK enzyme (recombinant protein from baculovirus-transfected Sf9 cells: full-length BTK, 6HIS-tag cleaved). Following a 60 minute compound & enzyme incubation, each reaction was initiated by the addition of 2.5 μL 1× kinase buffer containing 8 μM biotinylated “AS” peptide (Biotin-EQEDEPEGDYFEWLE-NH2), and 100 μM ATP. The final reaction in each well of 10 μL consists of 50 pM hBTK, 2 μM biotin-AS-peptide, and 25 μM ATP. Phosphorylation reactions were allowed to proceed for 120 minutes. Reactions were immediately quenched by the addition of 20 uL of 1× quench buffer (15 mM EDTA, 25 mM Hepes 7.3, and 0.1% Triton X-100) containing detection reagents (0.626 nM of LANCE-Eu-W1024-anti-phosphoTyrosine antibody, PerkinElmer and 86.8 nM of Streptavidin-conjugated Dylight 650, Dyomics/ThermoFisher Scientific). After 60 minutes incubation with detection reagents, reaction plates were read on a PerkinElmer EnVision plate reader using standard TR-FRET protocol. Briefly, excitation of donor molecules (Eu-chelate:anti-phospho-antibody) with a laser light source at 337 nm produces energy that can be transferred to Dylight-650 acceptor molecules if this donor:acceptor pair is within close proximity. Fluorescence intensity at both 665 nm (acceptor) and 615 nm (donor) are measured and a TR-FRET ratio calculated for each well (acceptor intensity/donor intensity). IC50 values were determined by 4 parameter robust fit of TR-FRET ratio values vs. (Log10) compound concentrations.
T1 sequence (Q06187 whole entry): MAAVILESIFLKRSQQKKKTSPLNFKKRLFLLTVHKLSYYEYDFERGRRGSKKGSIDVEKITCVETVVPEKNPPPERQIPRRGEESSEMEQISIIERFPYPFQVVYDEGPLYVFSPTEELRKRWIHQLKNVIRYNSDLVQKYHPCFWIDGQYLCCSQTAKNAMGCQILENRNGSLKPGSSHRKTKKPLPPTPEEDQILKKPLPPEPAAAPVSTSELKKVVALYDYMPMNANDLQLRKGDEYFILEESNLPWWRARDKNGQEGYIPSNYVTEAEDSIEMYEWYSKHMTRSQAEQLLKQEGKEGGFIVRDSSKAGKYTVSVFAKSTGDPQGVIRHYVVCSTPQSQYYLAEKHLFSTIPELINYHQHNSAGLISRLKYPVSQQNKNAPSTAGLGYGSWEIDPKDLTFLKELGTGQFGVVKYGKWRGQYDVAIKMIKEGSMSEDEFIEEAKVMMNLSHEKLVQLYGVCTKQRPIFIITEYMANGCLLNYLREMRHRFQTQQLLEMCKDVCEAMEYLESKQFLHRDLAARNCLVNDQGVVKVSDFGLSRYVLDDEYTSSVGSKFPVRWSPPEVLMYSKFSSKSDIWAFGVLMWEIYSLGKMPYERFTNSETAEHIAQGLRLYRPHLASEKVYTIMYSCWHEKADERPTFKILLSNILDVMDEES
As to `N#CN1CCO[C@@H](c2nc(-c3ccc(C(=O)Nc4cc(C(F)(F)F)ccn4)cc3)c3c(N)nccn23)C1` [Example 11, 4-{8-amino-3-[(2R)-4-cyanomorpholin-2-yl]imidazo[1,5-a]pyrazin-1-yl}-N-[4-(trifluoromethyl)pyridin-2-yl]benzamide], the half-maximal inhibitory concentration (IC50) was 0.78 nM. Then `CCOc1cc(C(=O)Nc2cc(C(F)(F)F)ccn2)ccc1-c1nc([C@@H]2CC[C@H](C)N(C#N)C2)n2c(Cl)cnc(N)c12` [Example 23, 4-{8-amino-5-chloro-3-[(3R,6S)-1-cyano-6-methylpiperidin-3-yl]imidazo[1,5-a]pyrazin-1-yl}-3-ethoxy-N-[4-(trifluoromethyl)pyridin-2-yl]benzamide], with 2.2 nM; and `COc1ccnc(NC(=O)c2ccc(-c3nc([C@@H]4CCCN(C#N)C4)n4ccnc(N)c34)cc2)c1` [Example 15, 4-{8-amino-3-[(3R)-1-cyanopiperidin-3-yl]imidazo[1,5-a]pyrazin-1-yl}-N-(4-methoxypyridin-2-yl)benzamide], with 0.41 nM. For `N#CN1CCC[C@@H](c2nc(-c3ccc(C(=O)Nc4cc(C(F)F)ccn4)cc3)c3c(N)nccn23)C1` [Example 16, 4-{8-amino-3-[(3R)-1-cyanopiperidin-3-yl]imidazo[1,5-a]pyrazin-1-yl}-N-[4-(difluoromethyl)pyridin-2-yl]benzamide], the IC50 turned out to be 0.29 nM. Then `COCc1cnc(N)c2c(-c3ccc(C(=O)Nc4cc(C(F)(F)F)ccn4)cc3F)nc([C@@H]3CCCN(C#N)C3)n12` [Example 18, 4-{8-amino-3-[(3R)-1-cyanopiperidin-3-yl]-5-(methoxymethyl)imidazo[1,5-a]pyrazin-1-yl}-3-fluoro-N-[4-(trifluoromethyl)pyridin-2-yl]benzamide], with 0.92 nM. As for `N#CN1CCO[C@@H](c2nc(-c3ccc(C(=O)Nc4cc(C5CC5)ccn4)cc3)c3c(N)nccn23)C1` [Example 12, 4-{8-amino-3-[(2R)-4-cyanomorpholin-2-yl]imidazo[1,5-a]pyrazin-1-yl}-N-(4-cyclopropylpyridin-2-yl)benzamide], the IC50 was 1 nM. For the compound `N#CN1CCC[C@@H](c2nc(-c3ccc(C(=O)Nc4ccccn4)cc3)c3c(N)nccn23)C1` [Example 2, 4-{8-amino-3-[(3R)-1-cyanopiperidin-3-yl]imidazo[1,5-a]pyrazin-1-yl}-N-pyridin-2-ylbenzamide], the IC50 stood at 1.5 nM. Then `Cc1nccn2c([C@@H]3CCCN(C#N)C3)nc(-c3ccc(C(=O)Nc4cc(C5CC5)ccn4)cc3)c12` [Example 8, 4-{3-[(3R)-1-cyanopiperidin-3-yl]-8-methylimidazo[1,5-a]pyrazin-1-yl}-N-(4-cyclopropylpyridin-2-yl)benzamide], with 46.8 nM; and `Cc1ccnc(NC(=O)c2ccc(-c3nc([C@@H]4CCCN(C#N)C4)n4ccnc(N)c34)cc2)c1` [Example 14, 4-{8-amino-3-[(3R)-1-cyanopiperidin-3-yl]imidazo[1,5-a]pyrazin-1-yl}-N-(4-methylpyridin-2-yl)benzamide], with 0.24 nM.

Take `N#CN1CCOC(c2nc(-c3ccc(C(=O)Nc4cc(C(F)(F)F)ccn4)cc3)c3c(N)nccn23)C1` (centres unmarked) [Example 6, 4-[8-amino-3-(4-cyanomorpholin-2-yl)imidazo[1,5-a]pyrazin-1-yl]-N-[4-(trifluoromethyl)pyridin-2-yl]benzamide]: the half-maximal inhibitory concentration (IC50) is 3.9 nM. For `N#CN1CCC[C@H]1c1nc(-c2ccc(C(=O)Nc3cc(C4CC4)ccn3)cc2)c2c(N)nccn12` [Example 9, 4-{8-amino-3-[(2S)-1-cyanopyrrolidin-2-yl]imidazo[1,5-a]pyrazin-1-yl}-N-(4-cyclopropylpyridin-2-yl)benzamide], the IC50 is 67.6 nM. Then `CCOc1cc(C(=O)Nc2cc(C(F)(F)F)ccn2)ccc1-c1nc([C@@H]2CCCN(C#N)C2)n2ccnc(N)c12` [Example 19, 4-{8-amino-3-[(3R)-1-cyanopiperidin-3-yl]imidazo[1,5-a]pyrazin-1-yl}-3-ethoxy-N-[4-(trifluoromethyl)pyridin-2-yl]benzamide], with 0.68 nM; and `C[C@H]1CO[C@@H](c2nc(-c3ccc(C(=O)Nc4cc(C(F)(F)F)ccn4)cc3F)c3c(N)ncc(Cl)n23)CN1C#N` [Example 20, 4-{8-amino-5-chloro-3-[(2R,5S)-4-cyano-5-methylmorpholin-2-yl]imidazo[1,5-a]pyrazin-1-yl}-3-fluoro-N-[4-(trifluoromethyl)pyridin-2-yl]benzamide], with 0.48 nM; and `Cc1nccn2c([C@@H]3CCCN3C#N)nc(-c3ccc(C(=O)Nc4ccccn4)cc3)c12` [Example 5, 4-{3-[(2S)-1-cyanopyrrolidin-2-yl]-8-methylimidazo[1,5-a]pyrazin-1-yl}-N-pyridin-2-ylbenzamide], with 371 nM. Turning to `N#CN1CCC[C@H]1c1nc(-c2ccc(C(=O)Nc3cc(F)ccn3)cc2)c2c(N)nccn12` [Example 4, 4-{8-amino-3-[(2S)-1-cyanopyrrolidin-2-yl]imidazo[1,5-a]pyrazin-1-yl}-N-(4-fluoropyridin-2-yl)benzamide], the concentration for half-maximal inhibition (IC50) turned out to be 49 nM. In the case of `N#CN1CCC[C@@H](c2nc(-c3ccc(C(=O)Nc4cc(C(F)(F)F)ccn4)cc3)c3c(N)ncc(Cl)n23)C1` [Example 17, 4-{8-amino-5-chloro-3-[(3R)-1-cyanopiperidin-3-yl]imidazo[1,5-a]pyrazin-1-yl}-N-[4-(trifluoromethyl)pyridin-2-yl]benzamide], the 50% inhibitory concentration (IC50) is 0.19 nM. Regarding `COc1cc(C(=O)Nc2cc(C(F)(F)F)ccn2)ccc1-c1nc([C@H]2CN(C#N)CCO2)n2ccnc(N)c12` [Example 22, 4-{8-amino-3-[(2R)-4-cyanomorpholin-2-yl]imidazo[1,5-a]pyrazin-1-yl}-3-methoxy-N-[4-(trifluoromethyl)pyridin-2-yl]benzamide], the concentration for half-maximal inhibition (IC50) is 0.6 nM.

For the compound `N#CN1CCC[C@@H](c2nc(-c3ccc(C(=O)Nc4cc(C(F)(F)F)ccn4)cc3)c3c(N)nccn23)C1` [Example 1, 4-{8-amino-3-[(3R)-1-cyanopiperidin-3-yl]imidazo[1,5-a]pyrazin-1-yl}-N-[4-(trifluoromethyl)pyridin-2-yl]benzamide], the IC50 was 3.6 nM. As for `CCOc1cc(C(=O)Nc2cc(C(F)(F)F)ccn2)ccc1-c1nc([C@H]2CN(C#N)[C@@H](C)CO2)n2c(Cl)cnc(N)c12` [Example 21, 4-{8-amino-5-chloro-3-[(2R,5S)-4-cyano-5-methylmorpholin-2-yl]imidazo[1,5-a]pyrazin-1-yl}-3-ethoxy-N-[4-(trifluoromethyl)pyridin-2-yl]benzamide], the half-inhibitory concentration (IC50) came to 1.5 nM.

Consider `N#CN1CCC[C@@H](c2nc(-c3ccc(C(=O)Nc4cc(C5CC5)ccn4)cc3)c3c(N)nccn23)C1` [Example 7, 4-{8-amino-3-[(3R)-1-cyanopiperidin-3-yl]imidazo[1,5-a]pyrazin-1-yl}-N-(4-cyclopropylpyridin-2-yl)benzamide], for which the IC50 was 1.8 nM. For the compound `N#CN1CCC[C@H]1c1nc(-c2ccc(C(=O)Nc3ccccn3)cc2)c2c(N)nccn12` [Example 3, 4-{8-amino-3-[(2S)-1-cyanopyrrolidin-2-yl]imidazo[1,5-a]pyrazin-1-yl}-N-pyridin-2-ylbenzamide], the IC50 came out at 60.3 nM. With `C[C@H]1CC[C@@H](c2nc(-c3ccc(C(=O)Nc4ccccn4)cc3)c3c(N)nccn23)CN1C#N` [Example 10, 4-{8-amino-3-[(3R,6S)-1-cyano-6-methylpiperidin-3-yl]imidazo[1,5-a]pyrazin-1-yl}-N-pyridin-2-ylbenzamide], the half-maximal inhibitory concentration (IC50) amounted to 3.1 nM. Consider `N#CN1CCC[C@@H](c2nc(-c3ccc(C(=O)Nc4cc(C(F)(F)F)ccn4)cc3F)c3c(N)nccn23)C1` [Example 13, 4-{8-amino-3-[(3R)-1-cyanopiperidin-3-yl]imidazo[1,5-a]pyrazin-1-yl}-3-fluoro-N-[4-(trifluoromethyl)pyridin-2-yl]benzamide], for which the IC50 stood at 0.36 nM.

The IC50 is the concentration needed to halve the response being measured.
